In patent EP4635500A1, “THERAPEUTIC AGENT FOR BACTERIAL INFECTION” (Sumitomo Pharma Co., Ltd., priority 2022, dated 2024):
Values after ≈ are worked out from the molar mass of the structure shown. Like-named read-outs stand apart in the source and are kept apart here.

How the values were obtained:
53 CRE and CPE strains = assay: MICrange, MIC50, MIC80, MIC90 for 53 bacterial isolates (Example 5, Table 5); type: cell-based; conditions: 53 bacterial isolates
P. aeruginosa = assay: MIC, broth microdilution, CDC/FDA Antibiotic Resistance Isolate Bank (Example 7, Tables 10, 15); type: cell-based; conditions: for MIC: Pseudomonas aeruginosa, read-out: MIC
[1] = 26 metallo-carbapenemase-producing P. aeruginosa strains, β-lactamase inhibitor µg/mL in parentheses
[2] = 96 strains of P. aeruginosa, β-lactamase inhibitor µg/mL in parentheses

Structure (SMILES): C[C@H]1COc2c(N3CCN(C)CC3)c(F)cc3c(=O)c(C(=O)O)cn1c23 [Levofloxacin, levofloxacin]
- MIC50 (53 CRE and CPE strains; read-out: MIC50): 16 µg/mL (≈ 44.3 µM)
- MIC80 (53 CRE and CPE strains; read-out: MIC80): 64 µg/mL (≈ 177 µM)
- MIC90 (53 CRE and CPE strains; read-out: MIC90): 64 µg/mL (≈ 177 µM)
- MIC against 26 metallo-carbapenemase-producing strains MIC50 (P. aeruginosa; [1]): 32 µg(mL)
- MIC against 26 metallo-carbapenemase-producing strains MIC90 (P. aeruginosa; [1]): >64 µg(mL)
- MIC against 96 strains of P. aeruginosa MIC50 (P. aeruginosa; [2]): 32 µg(mL)
- MIC against 96 strains of P. aeruginosa MIC90 (P. aeruginosa; [2]): 64 µg(mL)
- MIC (P. aeruginosa; P. aeruginosa KUB No. 579, AR Bank # 447): 0.5 µg/mL (≈ 1.38 µM)
- MIC (P. aeruginosa; P. aeruginosa KUB No. 5083, AR Bank # 250): 64 µg/mL (≈ 177 µM)
- MIC (P. aeruginosa; P. aeruginosa KUB No. 5551, AR Bank # 54): 64 µg/mL (≈ 177 µM)
- MIC (P. aeruginosa; P. aeruginosa KUB No. 5561, AR Bank # 64): 32 µg/mL (≈ 88.6 µM)
- MIC (P. aeruginosa; P. aeruginosa KUB No. 5587, AR Bank # 90): 32 µg/mL (≈ 88.6 µM)
- MIC (P. aeruginosa; P. aeruginosa KUB No. 5589, AR Bank # 92): 64 µg/mL (≈ 177 µM)
- MIC (P. aeruginosa; P. aeruginosa KUB No. 5591, AR Bank # 94): 64 µg/mL (≈ 177 µM)
- MIC (P. aeruginosa; P. aeruginosa KUB No. 5592, AR Bank # 95): 32 µg/mL (≈ 88.6 µM)
- MIC (P. aeruginosa; P. aeruginosa KUB No. 5597, AR Bank # 100): > 64 µg/mL
- MIC (P. aeruginosa; P. aeruginosa KUB No. 5600, AR Bank # 103): 64 µg/mL (≈ 177 µM)
- MIC (P. aeruginosa; P. aeruginosa KUB No. 5602, AR Bank # 105): > 64 µg/mL
- MIC (P. aeruginosa; P. aeruginosa KUB No. 5605, AR Bank # 108): 64 µg/mL (≈ 177 µM)
- MIC (P. aeruginosa; P. aeruginosa KUB No. 5607, AR Bank # 110): 32 µg/mL (≈ 88.6 µM)
- MIC (P. aeruginosa; P. aeruginosa KUB No. 5608, AR Bank # 111): 32 µg/mL (≈ 88.6 µM)
- MIC (P. aeruginosa; P. aeruginosa KUB No. 5662, AR Bank # 229): 64 µg/mL (≈ 177 µM)
- MIC (P. aeruginosa; P. aeruginosa KUB No. 5663, AR Bank # 230): 32 µg/mL (≈ 88.6 µM)
- MIC (P. aeruginosa; P. aeruginosa KUB No. 5664, AR Bank # 231): 64 µg/mL (≈ 177 µM)
- MIC (P. aeruginosa; P. aeruginosa KUB No. 5665, AR Bank # 232): 8 µg/mL (≈ 22.1 µM)
- MIC (P. aeruginosa; P. aeruginosa KUB No. 5666, AR Bank # 23): 2 µg/mL (≈ 5.53 µM)
- MIC (P. aeruginosa; P. aeruginosa KUB No. 5667, AR Bank # 234): 8 µg/mL (≈ 22.1 µM)
- MIC (P. aeruginosa; P. aeruginosa KUB No. 5668, AR Bank # 235): 64 µg/mL (≈ 177 µM)
- MIC (P. aeruginosa; P. aeruginosa KUB No. 5669, AR Bank # 236): 16 µg/mL (≈ 44.3 µM)
- MIC (P. aeruginosa; P. aeruginosa KUB No. 5670, AR Bank # 237): 0.5 µg/mL (≈ 1.38 µM)
- MIC (P. aeruginosa; P. aeruginosa KUB No. 5671, AR Bank # 238): 0.5 µg/mL (≈ 1.38 µM)
- MIC (P. aeruginosa; P. aeruginosa KUB No. 5672, AR Bank # 239): 64 µg/mL (≈ 177 µM)
- MIC (P. aeruginosa; P. aeruginosa KUB No. 5673, AR Bank # 240): > 64 µg/mL
- MIC (P. aeruginosa; P. aeruginosa KUB No. 5674, AR Bank # 241): 32 µg/mL (≈ 88.6 µM)
- MIC (P. aeruginosa; P. aeruginosa KUB No. 5675, AR Bank # 242): 16 µg/mL (≈ 44.3 µM)
- MIC (P. aeruginosa; P. aeruginosa KUB No. 5676, AR Bank # 243): 16 µg/mL (≈ 44.3 µM)
- MIC (P. aeruginosa; P. aeruginosa KUB No. 5677, AR Bank # 244): 64 µg/mL (≈ 177 µM)
- MIC (P. aeruginosa; P. aeruginosa KUB No. 5678, AR Bank # 245): > 64 µg/mL
- MIC (P. aeruginosa; P. aeruginosa KUB No. 5679, AR Bank # 246): 32 µg/mL (≈ 88.6 µM)
- MIC (P. aeruginosa; P. aeruginosa KUB No. 5680, AR Bank # 247): 1 µg/mL (≈ 2.77 µM)
- MIC (P. aeruginosa; P. aeruginosa KUB No. 5681, AR Bank # 248): 16 µg/mL (≈ 44.3 µM)
- MIC (P. aeruginosa; P. aeruginosa KUB No. 5682, AR Bank # 249): 64 µg/mL (≈ 177 µM)
- MIC (P. aeruginosa; P. aeruginosa KUB No. 5684, AR Bank # 251): 8 µg/mL (≈ 22.1 µM)
- MIC (P. aeruginosa; P. aeruginosa KUB No. 5685, AR Bank # 252): 16 µg/mL (≈ 44.3 µM)
- MIC (P. aeruginosa; P. aeruginosa KUB No. 5686, AR Bank # 253): 1 µg/mL (≈ 2.77 µM)
- MIC (P. aeruginosa; P. aeruginosa KUB No. 5687, AR Bank # 254): 16 µg/mL (≈ 44.3 µM)
- MIC (P. aeruginosa; P. aeruginosa KUB No. 5688, AR Bank # 255): 32 µg/mL (≈ 88.6 µM)
- MIC (P. aeruginosa; P. aeruginosa KUB No. 5689, AR Bank # 256): 0.5 µg/mL (≈ 1.38 µM)
- MIC (P. aeruginosa; P. aeruginosa KUB No. 5690, AR Bank # 257): 64 µg/mL (≈ 177 µM)
- MIC (P. aeruginosa; P. aeruginosa KUB No. 5691, AR Bank # 258): 0.5 µg/mL (≈ 1.38 µM)
- MIC (P. aeruginosa; P. aeruginosa KUB No. 5692, AR Bank # 259): 0.5 µg/mL (≈ 1.38 µM)
- MIC (P. aeruginosa; P. aeruginosa KUB No. 5693, AR Bank # 260): 32 µg/mL (≈ 88.6 µM)
- MIC (P. aeruginosa; P. aeruginosa KUB No. 5694, AR Bank # 261): 4 µg/mL (≈ 11.1 µM)
- MIC (P. aeruginosa; P. aeruginosa KUB No. 5695, AR Bank # 262): 2 µg/mL (≈ 5.53 µM)
- MIC (P. aeruginosa; P. aeruginosa KUB No. 5696, AR Bank # 263): 2 µg/mL (≈ 5.53 µM)
- MIC (P. aeruginosa; P. aeruginosa KUB No. 5697, AR Bank # 264): 32 µg/mL (≈ 88.6 µM)
- MIC (P. aeruginosa; P. aeruginosa KUB No. 5698, AR Bank # 265): 64 µg/mL (≈ 177 µM)
- MIC (P. aeruginosa; P. aeruginosa KUB No. 5699, AR Bank # 266): 32 µg/mL (≈ 88.6 µM)
- MIC (P. aeruginosa; P. aeruginosa KUB No. 5700, AR Bank # 267): 32 µg/mL (≈ 88.6 µM)
- MIC (P. aeruginosa; P. aeruginosa KUB No. 5701, AR Bank # 268): 8 µg/mL (≈ 22.1 µM)
- MIC (P. aeruginosa; P. aeruginosa KUB No. 5702, AR Bank # 269): 32 µg/mL (≈ 88.6 µM)
- MIC (P. aeruginosa; P. aeruginosa KUB No. 5703, AR Bank # 270): 32 µg/mL (≈ 88.6 µM)
- MIC (P. aeruginosa; P. aeruginosa KUB No. 5704, AR Bank # 271): 32 µg/mL (≈ 88.6 µM)
- MIC (P. aeruginosa; P. aeruginosa KUB No. 5705, AR Bank # 272): 8 µg/mL (≈ 22.1 µM)
- MIC (P. aeruginosa; P. aeruginosa KUB No. 5747, AR Bank # 351): 8 µg/mL (≈ 22.1 µM)
- MIC (P. aeruginosa; P. aeruginosa KUB No. 5748, AR Bank # 352): 32 µg/mL (≈ 88.6 µM)
- MIC (P. aeruginosa; P. aeruginosa KUB No. 5749, AR Bank # 353): 32 µg/mL (≈ 88.6 µM)
- MIC (P. aeruginosa; P. aeruginosa KUB No. 5750, AR Bank # 354): 8 µg/mL (≈ 22.1 µM)
- MIC (P. aeruginosa; P. aeruginosa KUB No. 5751, AR Bank # 355): 32 µg/mL (≈ 88.6 µM)
- MIC (P. aeruginosa; P. aeruginosa KUB No. 5752, AR Bank # 356): 0.5 µg/mL (≈ 1.38 µM)
- MIC (P. aeruginosa; P. aeruginosa KUB No. 5753, AR Bank # 357): 32 µg/mL (≈ 88.6 µM)
- MIC (P. aeruginosa; P. aeruginosa KUB No. 5754, AR Bank # 358): 8 µg/mL (≈ 22.1 µM)
- MIC (P. aeruginosa; P. aeruginosa KUB No. 5755, AR Bank # 359): 8 µg/mL (≈ 22.1 µM)
- MIC (P. aeruginosa; P. aeruginosa KUB No. 5756, AR Bank # 360): 1 µg/mL (≈ 2.77 µM)
- MIC (P. aeruginosa; P. aeruginosa KUB No. 5785, AR Bank # 439): 32 µg/mL (≈ 88.6 µM)
- MIC (P. aeruginosa; P. aeruginosa KUB No. 5786, AR Bank # 440): 32 µg/mL (≈ 88.6 µM)
- MIC (P. aeruginosa; P. aeruginosa KUB No. 5787, AR Bank # 441): 0.5 µg/mL (≈ 1.38 µM)
- MIC (P. aeruginosa; P. aeruginosa KUB No. 5788, AR Bank # 443): 64 µg/mL (≈ 177 µM)
- MIC (P. aeruginosa; P. aeruginosa KUB No. 5789, AR Bank # 444): 32 µg/mL (≈ 88.6 µM)
- MIC (P. aeruginosa; P. aeruginosa KUB No. 5790, AR Bank # 445): 32 µg/mL (≈ 88.6 µM)
- MIC (P. aeruginosa; P. aeruginosa KUB No. 5793, AR Bank # 449): 32 µg/mL (≈ 88.6 µM)
- MIC (P. aeruginosa; P. aeruginosa KUB No. 5798, AR Bank # 455): 4 µg/mL (≈ 11.1 µM)
- MIC (P. aeruginosa; P. aeruginosa KUB No. 5799, AR Bank # 456): > 64 µg/mL
- MIC (P. aeruginosa; P. aeruginosa KUB No. 5800, AR Bank # 457): 64 µg/mL (≈ 177 µM)
- MIC (P. aeruginosa; P. aeruginosa KUB No. 5801, AR Bank # 458): 2 µg/mL (≈ 5.53 µM)
- MIC (P. aeruginosa; P. aeruginosa KUB No. 5802, AR Bank # 459): 8 µg/mL (≈ 22.1 µM)
- MIC (P. aeruginosa; P. aeruginosa KUB No. 5804, AR Bank # 862): 4 µg/mL (≈ 11.1 µM)
- MIC (P. aeruginosa; P. aeruginosa KUB No. 5805, AR Bank # 863): 64 µg/mL (≈ 177 µM)
- MIC (P. aeruginosa; P. aeruginosa KUB No. 5806, AR Bank # 864): > 64 µg/mL
- MIC (P. aeruginosa; P. aeruginosa KUB No. 5813, AR Bank # 508): 0.008 µg/mL (≈ 0.0221 µM)
- MIC (P. aeruginosa; P. aeruginosa KUB No. 5814, AR Bank # 509): 0.032 µg/mL (≈ 0.0886 µM)
- MIC (P. aeruginosa; P. aeruginosa KUB No. 5815, AR Bank # 510): 0.008 µg/mL (≈ 0.0221 µM)
- MIC (P. aeruginosa; P. aeruginosa KUB No. 5816, AR Bank # 511): 0.001 µg/mL (≈ 0.00277 µM)
- MIC (P. aeruginosa; P. aeruginosa KUB No. 5817, AR Bank # 512): 0.004 µg/mL (≈ 0.0111 µM)
- MIC (P. aeruginosa; P. aeruginosa KUB No. 5818, AR Bank # 513): > 0.064 µg/mL
- MIC (P. aeruginosa; P. aeruginosa KUB No. 5819, AR Bank # 514): 0.001 µg/mL (≈ 0.00277 µM)
- MIC (P. aeruginosa; P. aeruginosa KUB No. 5820, AR Bank # 515): > 0.064 µg/mL
- MIC (P. aeruginosa; P. aeruginosa KUB No. 5821, AR Bank # 516): 0.001 µg/mL (≈ 0.00277 µM)
- MIC (P. aeruginosa; P. aeruginosa KUB No. 5823, AR Bank # 518): 0.064 µg/mL (≈ 0.177 µM)
- MIC (P. aeruginosa; P. aeruginosa KUB No. 5831, AR Bank # 526): 0.032 µg/mL (≈ 0.0886 µM)
- MIC (P. aeruginosa; P. aeruginosa KUB No. 5832, AR Bank # 527): 0.032 µg/mL (≈ 0.0886 µM)
- MIC (P. aeruginosa; P. aeruginosa KUB No. 5833, AR Bank # 528): 0.032 µg/mL (≈ 0.0886 µM)
- MIC (P. aeruginosa; P. aeruginosa KUB No. 5834, AR Bank # 529): 0.016 µg/mL (≈ 0.0443 µM)
